Like-named read-outs stand apart in the source and are kept apart here. Marks after values point to notes of the source that are not given here.
How the values were obtained:
Assay type in all cases: cell-based
IL-1β = test: Whole bovine blood assay, LPS-induced IL-1β (inhibition / overstimulation); conditions: drug concentration giving overstimulation (OS) of LPS-induced IL-1β, top concentration 250 μM
Procedure, shortened: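 IL-1β was quantified by MSD U-Plex chemiluminescence in plasma and normalized to BCA total protein. Bovine blood was pretreated 4 h at 37 °C with compound dilutions before 18 h LPS challenge (1 μg/mL final). Rising IL-1β at high concentrations was recorded as overstimulation.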

TNF-α = test: Whole bovine blood assay, LPS-induced TNF-α; conditions: fresh whole bovine blood, LPS stimulant, top drug concentration 250 μM
Procedure, shortened: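 Fresh heparinized bovine whole blood was preincubated with compound 4 h at 37 °C, then stimulated with LPS (final 1 μg/mL) for 18 h at 37 °C. Plasma TNF-α was quantified by MSD U-Plex chemiluminescent immunoassay, normalized to total protein (BCA), and IC50 taken for LPS-induced TNF-α inhibition.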

IL-6 = test: Whole bovine blood assay, LPS-induced IL-6; conditions: fresh whole bovine blood, LPS stimulant, top drug concentration 250 μM
[1] = test system: BRD pathogens, M. haemolytica and P. multocida; test: MIC screening panel, BRD pathogens (CLSI broth micro-dilution)
Excerpt: Primary screening of the compounds of the invention included the evaluation of antibacterial activity of analogs through determination of microbial inhibition concentration (MIC) as per CLSI guidelines. The screening panel included the relevant BRD pathogens: 1) M. haemolytica (e.g., 12726, 46571 and 49023, all AHDRCC; and 33396 (ATCC)); and 2) P. multocida (e.g., 34135 and 46572 (both AHDRCC) and 43137 (ATCC)). In some instances, H. somni (A700025K) pathogens were also included in the screening panel. The AHDRCC strains originated from the Zoetis BRD/SRD surveillance program and refer to the Animal Health Development and Research Culture Collection. In addition, the screen assessed S. aureus (29213 ATCC) as a representative Gram-positive isolate, E.faecalis (19433 ATCC) as a commensal gram-positive gastrointestinal bacterium and E. coli (100, 3110 and 25922 (ATCC)) for the evaluation of efflux potential. The screening panel BRD pathogens were assessed in determining antibacterial activity of the Formula (1) compounds.
All relevant BRD pathogens were initially screened at a top concentration of 64 μg/mL of a Formula (1) compound in an eleven-point dilution series. […] If an Example was purified further, the MICs moved […] essentially two dilutions across all strains tested in the screening panel.
In-Vitro MIC Model Compounds were analyzed for antibacterial activity against a panel of animal health specific gram-positive and gram-negative clinical strains by diluting compounds in DMSO to an appropriate stock concentration to determine the Minimal Inhibitory Concentration (MIC) via a semi-automated broth micro-dilution method (CLSI reference method) with QC strains and anti-microbial agent(s). Specifically, bacteria were grown overnight on TSA w/5% sheep blood agar plates and diluted in saline buffer to a McFarland Standard 0.5, then further diluted in cation-ion adjusted Mueller Hinton Broth to a final concentration of approximately 5×10^5 CFU/mL. 100 μL of inoculated media was added to 96-well plate(s) with 3 μL of serially diluted compound in each row. Depending on strain (see CLSI reference method), bacteria were incubated 18-22 hours at 35-37° C. in ambient air, with 5% CO2 or anaerobically (up to 48 hours).

[2] = Table C, at least one BRD pathogenic strain, top concentration 64 μg/mL
[3] = Table B, at least one BRD pathogenic strain, top concentration 64 μg/mL, read-out: MIC flag (*) for BRD pathogenic strains

Compound | IC50 (TNF-α) [µM] | IC50 (IL-6) [µM] | MIC [1, 3] [µg/mL] | IC50 (TNF-α; Bos taurus) [µM] | IC50 (IL-6; Bos taurus) [µM] | other results
CC(=O)O.CC[C@H]1OC(=O)[C@H](C)[C@@H](O[C@H]2C[C@@](C)(OC)[C@](O)(CN3CCCCC3)[C@H](C)O2)[C@H](C)[C@@H](O[C@@H]2O[C@H](C)C[C@H](N(C)S(=O)(=O)Nc3ccc(C(F)(F)F)cc3)[C@H]2O)[C@](C)(O)C[C@@H](C)CN(C)[C@H](C)[C@@H](O)[C@]1(C)O [Example C-57, (2R,3S,4R,5R,8R,10R,11R,12S,13S,14R)-2-ethyl-3,4, 10-trihydroxy-13-[(2R,4R,5S,6S)-5-hydroxy-4-methoxy-4,6-dimethyl-5-(piperidin-1-ylmethyl)oxan-2-yl]oxy-11-[(2S,3R,4S,6R)-3-hydroxy-6-methyl-4-[methyl-[[4-(trifluoromethyl)phenyl]sulfamoyl]amino]oxan-2-yl]oxy-3,5,6,8, 10, 12, 14-heptamethyl-15-oxo-1-oxa-6-azacyclopentadecane, acetic acid] | 6 | 9 |  |  |  | minimal effective concentration (IL-1β): 16 µM; MIC flag (*) for BRD pathogenic strains [1, 2]: C-57* (MIC ≤64 μg/mL for at least one BRD pathogenic strain)
CCCNC[C@]1(O)[C@H](C)O[C@@H](O[C@H]2[C@H](C)[C@@H](O[C@@H]3O[C@H](C)C[C@H](N(C)S(=O)(=O)c4cccnc4)[C@H]3O)[C@](C)(O)C[C@@H](C)CN[C@H](C)[C@@H](O)[C@](C)(O)[C@@H](CC)OC(=O)[C@@H]2C)C[C@@]1(C)OC [Example B-12, N-((2S,3R,4S,6R)-2-(((2R,3S,4R,5R,8R,10R,11R,12S, 13S,14R)-2-ethyl-3,4,10-trihydroxy-13-(((2R,4R,5S,6S)-5-hydroxy-4-methoxy-4,6-dimethyl-5-((propylamino)methyl)tetrahydro-2H-pyran-2-yl)oxy)-3,5,8,10,12,14-hexamethyl-15-oxo-1-oxa-6-azacyclopentadecan-11-yl)oxy)-3-hydroxy-6-methyltetrahydro-2H-pyran-4-yl)-N-methylpyridine-3-sulfonamide] |  |  | ≤ 64 |  |  | minimal effective concentration (IL-1β; Bos taurus, 18 h): > 250 µM
CC[C@H]1OC(=O)[C@H](C)[C@@H](O[C@H]2C[C@@](C)(OC)[C@](O)(CSc3ccccc3)[C@H](C)O2)[C@H](C)[C@@H](O[C@@H]2O[C@H](C)C[C@H](N(C)S(=O)(=O)c3ccc(Cl)cc3)[C@H]2O)[C@](C)(O)C[C@@H](C)CN[C@H](C)[C@@H](O)[C@]1(C)O [Example A3-1, 4-chloro-N-((2S,3R,4S,6R)-2-(((2R,3S,4R,5R,8R,10R,11R,12S,13S,14R)-2-ethyl-3,4, 10-trihydroxy-13-(((2R,4R,5S,6S)-5-hydroxy-4-methoxy-4,6-dimethyl-5-((phenylthio)methyl)tetrahydro-2H-pyran-2-yl)oxy)-3,5,8, 10, 12, 14-hexamethyl-15-oxo-1-oxa-6-azacyclopentadecan-11-yl)oxy)-3-hydroxy-6-methyltetrahydro-2H-pyran-4-yl)-N-methylbenzenesulfonamide] |  |  |  | 27 | 31 | MIC ([1]; BRD pathogens M. haemolytica and P. multocida, read-out: antibacterial / non-antibacterial (MIC class)): > 64 µg/mL
CC[C@H]1OC(=O)[C@H](C)[C@@H](O[C@H]2C[C@@](C)(OC)[C@](O)(CNCCc3ccc(C(F)(F)F)cc3)[C@H](C)O2)[C@H](C)[C@@H](O[C@@H]2O[C@H](C)C[C@H](N(C)S(=O)(=O)c3ccc(Cl)cc3)[C@H]2O)[C@](C)(O)C[C@@H](C)CN[C@H](C)[C@@H](O)[C@]1(C)O [Example B-31, 4-chloro-N-((2S,3R,4S,6R)-2-(((2R,3S,4R,5R,8R,10R,11R, 12S, 13S, 14R)-2-ethyl-3,4,10-trihydroxy-13-(((2R,4R,5S,6S)-5-hydroxy-4-methoxy-4,6-dimethyl-5-(((4-(trifluoromethyl)phenethyl)amino)methyl)tetrahydro-2H-pyran-2-yl)oxy)-3,5,8,10, 12,14-hexamethyl-15-oxo-1-oxa-6-azacyclopentadecan-11-yl)oxy)-3-hydroxy-6-methyltetrahydro-2H-pyran-4-yl)-N-methylbenzenesulfonamide] |  |  | ≤ 64 | 4 | 7 | 
CC[C@H]1OC(=O)[C@H](C)[C@@H](O[C@H]2C[C@@](C)(OC)[C@](O)(CNC3CC3)[C@H](C)O2)[C@H](C)[C@@H](O[C@@H]2O[C@H](C)C[C@H](N(C)S(=O)(=O)c3ccc(Cl)cc3)[C@H]2O)[C@](C)(O)C[C@@H](C)CN[C@H](C)[C@@H](O)[C@]1(C)O [Example B-23, 4-chloro-N-((2S,3R,4S,6R)-2-(((2R,3S,4R,5R,8R,10R,11R,12S,13S, 14R)-13-(((2R,4R,5S,6S)-5-((cyclopropylamino)methyl)-5-hydroxy-4-methoxy-4,6-dimethyltetrahydro-2H-pyran-2-yl)oxy)-2-ethyl-3,4, 10-trihydroxy-3,5,8, 10, 12,14-hexamethyl-15-oxo-1-oxa-6-azacyclopentadecan-11-yl)oxy)-3-hydroxy-6-methyltetrahydro-2H-pyran-4-yl)-N-methylbenzenesulfonamide] |  |  | ≤ 64 | 3 | 13 | 
(2R,3S,4R,5R,8R,10R,11R, 12S, 13S, 14R)-2-ethyl-3,4, 10-trihydroxy-13-[(2R,4R,5S,6S)-5-hydroxy-4-methoxy-4,6-dimethyl-5-(piperidin-1-ylmethyl) oxan-2-yl]oxy-11-[(2R,3S,4R,6S)-3-hydroxy-6-methyl-4-[methyl-[(3-methylphenyl) sulfamoyl]-amino]oxan-2-yl]oxy-3,5,8, 10, 12,14-hexamethyl-15-oxo-1-oxa-6-azacyclopentadecane [Example C-26] | 16 | 25 |  |  |  | MIC flag (*) for BRD pathogenic strains [1, 2]: C-26* (MIC ≤64 μg/mL for at least one BRD pathogenic strain)
CCCNC[C@]1(O)[C@H](C)O[C@@H](O[C@H]2[C@H](C)[C@@H](O[C@@H]3O[C@H](C)C[C@H](N(C)S(=O)(=O)c4ccc([N+](=O)[O-])cc4)[C@H]3O)[C@](C)(O)C[C@@H](C)CN[C@H](C)[C@@H](O)[C@](C)(O)[C@@H](CC)OC(=O)[C@@H]2C)C[C@@]1(C)OC [Example B-2, N-((2S,3R,4S,6R)-2-(((2R,3S,4R,5R,8R,10R,11R,12S,13S,14R)-2-ethyl-3,4,10-trihydroxy-13-(((2R,4R,5S,6S)-5-hydroxy-4-methoxy-4,6-dimethyl-5-((propylamino)methyl)tetrahydro-2H-pyran-2-yl)oxy)-3,5,8,10, 12,14-hexamethyl-15-oxo-1-oxa-6-azacyclopentadecan-11-yl)oxy)-3-hydroxy-6-methyltetrahydro-2H-pyran-4-yl)-N-methyl-4-nitrobenzenesulfonamide] |  |  | ≤ 64 | 37 | 46 | 
CC[C@H]1OC(=O)[C@H](C)[C@@H](O[C@H]2C[C@@](C)(OC)[C@](O)(CNCCc3ccc(C(F)(F)F)cc3)[C@H](C)O2)[C@H](C)[C@@H](O[C@@H]2O[C@H](C)C[C@H](N(C)S(=O)(=O)Nc3ccc(C(F)(F)F)cc3)[C@H]2O)[C@](C)(O)C[C@@H](C)CN[C@H](C)[C@@H](O)[C@]1(C)O [Example B-79] | 7 | 7 |  |  |  | MIC flag (*) for BRD pathogenic strains ([1]; Table B, at least one BRD pathogenic strain, top concentration 64 μg/mL): B79* (MIC ≤64 μg/mL for at least one BRD pathogenic strain)

Source: patent US20250236616A1, “IMMUNOMODULATING AZALIDES” (Zoetis Services LLC, priority 2021, published 2025)
